# Experimental data: US12295396B2, “Antagonists of T2R54 and compositions and uses thereof” (Firmenich Incorporated, priority 2018, dated 2025)
# Target: T1, hT2R54 (Homo sapiens, UniProt P59534)
# T1 construct: expressed in transfected cells; it overexpresses a promiscuous G protein
# T1 sequence (P59534 1-338): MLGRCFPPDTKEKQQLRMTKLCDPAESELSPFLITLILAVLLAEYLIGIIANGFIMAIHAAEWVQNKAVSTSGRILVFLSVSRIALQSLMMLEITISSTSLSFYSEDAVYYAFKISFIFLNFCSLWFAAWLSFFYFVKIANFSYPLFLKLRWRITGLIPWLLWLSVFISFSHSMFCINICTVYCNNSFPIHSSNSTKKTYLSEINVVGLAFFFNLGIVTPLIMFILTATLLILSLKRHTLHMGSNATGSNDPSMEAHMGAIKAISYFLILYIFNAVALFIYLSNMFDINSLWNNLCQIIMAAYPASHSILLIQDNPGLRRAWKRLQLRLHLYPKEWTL
# Experiment: Cell-based assay for measuring hT2R54 inhibition (FLIPR calcium, Fluo4AM, acetaminophen as bitter agonist)
# Settings: Table 2; cells stably expressing hT2R54 and a promiscuous G protein; read-out: hT2R54 IC50
# Procedure, shortened: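 The readout was FLIPR calcium (Fluo4AM, 10 s baseline, 3 min post-addition) in cells stably carrying hT2R54 plus a promiscuous G protein, with host cells lacking hT2R54 as counter-control. Acetaminophen concentration series were tested with and without set test-compound levels. Half-maximal block of the agonist response gave the EC50/IC50.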
row,IC50 [nM],SMILES
1,130,COc1cc2c(cc1NC(=O)CN1CCN(C(=O)c3ccco3)CC1)OCO2 [compound 88]
2,50,CC(=O)c1cc2c(cc1NC(=O)CN1CCN(C(=O)c3ccccc3F)CC1)OCO2 [compound 44]
3,540,CCCCC(=O)N1CCN(CC(=O)Nc2cc3c(cc2OC)OCO3)CC1 [compound 82]
4,45,COCc1ccc(C(=O)N2CCN(CC(=O)Nc3cc4c(cc3C(C)=O)OCCO4)CC2)cc1 [compound 325]
5,400,COc1cc2c(cc1NC(=O)CN1CCN(C(=O)c3cccc(C#N)c3)CC1)OCO2 [compound 382]
6,735,COc1cc2c(cc1NC(=O)CN1CCN(C(=O)c3cn(C)nn3)CC1)OCO2 [compound 360]
7,100,CC(=O)c1cc2c(cc1NC(=O)CN1CCN(C(=O)c3ccccn3)CC1)OCO2 [compound 49]
8,200,COc1cc2c(cc1NC(=O)CN1CCN(C(=O)c3cc(C)oc3C)CC1)OCO2 [compound 384]
9,336,CC(=O)c1cc2c(cc1NC(=O)CN1CCN(C(=O)C3CCOCC3)CC1)OCO2 [compound 24]
10,60,CC(=O)c1cc2c(cc1NC(=O)C(C)N1CCN(C(C)=O)CC1)OCCO2 (stereo not drawn) [compound 337]
11,80,CC(=O)c1cc2c(cc1NC(=O)CN1CCN(C(=O)c3cc(C)cs3)CC1)OCO2 [compound 73]

row,SMILES,IC50 [nM]
1,CC(=O)c1cc2c(cc1NC(=O)CN1CCN(C(=O)Cc3ccncc3)CC1)OCO2 [compound 60],80
2,CC(=O)c1cc2c(cc1NC(=O)CN1CCN(C(=O)Cc3ccc(F)cc3)CC1)OCO2 [compound 63],400

# Same assay, conditions: Table 4; cells stably expressing hT2R54 and a promiscuous G protein; read-out: hT2R54 IC50
row,SMILES,IC50 [nM]
1,COc1cc2c(cc1NC(=O)CN1CCOCC1)OCO2 [compound 143],142
2,CCOC(=O)C1COCCN1CC(=O)Nc1cc2c(cc1C(C)=O)OCO2 (stereo not drawn) [compound 128],79
3,CCOC(=O)C1CCN(CC(=O)Nc2cc3c(cc2C(C)=O)OCCO3)CC1 [compound 153],24
4,"CCOC(=O)C1CCCN(CC(=O)Nc2cc3c(cc2OC)OCO3)C1 (stereo not drawn) [compound 117, Ethyl 1-(2-((6-Methoxybenzo[d][1,3]dioxol-5-yl)amino)-2-oxoethyl)piperidine-3-carboxylate]",188
5,COC(=O)C1CN(CC(=O)Nc2cc3c(cc2C(C)=O)OCO3)CCC1=O (stereo not drawn) [compound 126],154

# The next lines start with the values.
row,IC50 [nM],SMILES
1,1820,COc1cc2c(cc1NC(=O)CN1CCCCC1)OCO2 [compound 440]
2,100,CCOC(=O)[C@H]1CCCN1CC(=O)Nc1cc2c(cc1C(C)=O)OCO2 [compound 420]
3,900,CC(=O)c1cc2c(cc1NC(=O)C(C)N1CCN(C(=O)OC(C)(C)C)CC1)OCO2 (stereo not drawn) [compound 431]
4,1000,COc1cc2c(cc1NC(=O)C(C)N1CCOCC1)OCO2 (stereo not drawn) [compound 441]

# Same assay, conditions: Table 8; read-out: hT2R54 IC50
row,SMILES,IC50 [nM]
1,CCC(C)C(=O)N1CCCC(CC(=O)Nc2cc3c(cc2C(C)=O)OCO3)C1 (stereo not drawn) [compound 208],170
2,CCOC(=O)N1CCC(CC(=O)Nc2cc3c(cc2C(C)=O)OCO3)C1 (stereo not drawn) [compound 268],117
3,CC(=O)c1cc2c(cc1NC(=O)CC1CN(C(=O)CC(C)C)CCO1)OCO2 (stereo not drawn) [compound 229],220
4,CC(=O)c1cc2c(cc1NC(=O)CC1CCCN(C(=O)OC(C)C)C1)OCO2 (stereo not drawn) [compound 215],160

# Next, values leading:
row,IC50 [nM],SMILES
1,700,COCCOCC(=O)N1CCC(CC(=O)Nc2cc3c(cc2C(C)=O)OCO3)CC1 [compound 470]
2,7700,COc1cc2c(cc1NC(=O)CC1CCCN(C(=O)c3ccco3)C1)OCO2 (stereo not drawn) [compound 512]
3,400,CC(=O)c1cc2c(cc1NC(=O)CC1CCN(C(=O)CC3CCOC3)CC1)OCO2 (stereo not drawn) [compound 477]
4,> 10000,CC(=O)c1cc2c(cc1NC(=O)CC1CCN(C(=O)CN3CCCC3)CC1)OCO2 [compound 479]

# Same assay, conditions: Table 9; read-out: hT2R54 IC50
row,IC50 [nM],SMILES
1,3800,CC(=O)c1cc2c(cc1NC(=O)Cc1c(C)noc1C)OCO2 [compound 518]
2,886,COc1ccccc1CC(=O)Nc1cc2c(cc1OC)OCO2 [compound 522]

# Same assay, conditions: other T2R54 bitter blockers (table after b418); read-out: hT2R54 IC50
row,IC50 [nM],SMILES
1,1800,COc1cc2ncnc(NCc3cccc4c3OCO4)c2cc1OC [B]
